Counter-ions that a name gives are not always drawn.
How the values were obtained:
Type in all cases: biochemical
Ube2R1 = biological target: T1, Ube2R1 (Homo sapiens, UniProt P49427); assay: E2 ubiquitin loading assay, panel of […] E2s at two fixed DMF concentrations
T1 construct: gene CDC34
T1 sequence (P49427 1-236): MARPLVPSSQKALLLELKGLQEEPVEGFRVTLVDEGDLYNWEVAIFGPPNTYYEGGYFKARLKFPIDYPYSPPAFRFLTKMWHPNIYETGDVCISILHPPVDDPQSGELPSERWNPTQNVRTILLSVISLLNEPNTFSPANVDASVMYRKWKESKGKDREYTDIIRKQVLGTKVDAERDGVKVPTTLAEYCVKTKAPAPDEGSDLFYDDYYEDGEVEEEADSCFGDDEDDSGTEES

Ube2T = biological target: T2, Ube2T (Homo sapiens, UniProt Q9NPD8); assay: as above
T2 sequence (Q9NPD8 1-197): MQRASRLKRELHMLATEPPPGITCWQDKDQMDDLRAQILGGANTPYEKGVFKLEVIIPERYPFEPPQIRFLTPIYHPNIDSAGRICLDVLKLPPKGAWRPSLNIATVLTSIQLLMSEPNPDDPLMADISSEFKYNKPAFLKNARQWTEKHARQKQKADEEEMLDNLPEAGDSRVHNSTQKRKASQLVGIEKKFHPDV

Ube2W = Ube2W (Homo sapiens, UniProt Q96B02); assay: as above
Chain of Ube2W (Q96B02 whole entry, one chain of several): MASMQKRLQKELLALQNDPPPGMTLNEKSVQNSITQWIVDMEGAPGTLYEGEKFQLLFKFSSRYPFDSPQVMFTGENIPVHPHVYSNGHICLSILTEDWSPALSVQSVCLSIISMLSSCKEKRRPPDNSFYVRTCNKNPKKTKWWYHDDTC

UbcH7 = biological target: T3, UbcH7 (Homo sapiens, UniProt P68036); assay: MALDI-TOF intact mass shift (covalent adducts, +[…] and +[…] Da); IC50 from E2 ubiquitin loading assay with purified UBE1 and E2
T3 construct: gene UBE2L3; recombinant UbcH7
T3 sequence (P68036 whole entry, one chain of several): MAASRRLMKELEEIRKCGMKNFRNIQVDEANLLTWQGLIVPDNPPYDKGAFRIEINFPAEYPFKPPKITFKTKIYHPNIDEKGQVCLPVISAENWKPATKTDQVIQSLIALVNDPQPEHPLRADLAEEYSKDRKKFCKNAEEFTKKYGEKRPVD

Ube2S = biological target: T4, Ube2S (Homo sapiens, UniProt Q16763); assay: E2 ubiquitin loading assay, panel of […] E2s at two fixed DMF concentrations
T4 sequence (Q16763 1-222): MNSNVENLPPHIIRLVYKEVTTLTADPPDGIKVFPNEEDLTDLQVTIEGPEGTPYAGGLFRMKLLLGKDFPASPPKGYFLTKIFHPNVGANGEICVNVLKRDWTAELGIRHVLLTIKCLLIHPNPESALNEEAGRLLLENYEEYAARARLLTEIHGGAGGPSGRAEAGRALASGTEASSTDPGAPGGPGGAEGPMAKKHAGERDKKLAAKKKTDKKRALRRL
T4 sequence (P22314 2-1058 partner): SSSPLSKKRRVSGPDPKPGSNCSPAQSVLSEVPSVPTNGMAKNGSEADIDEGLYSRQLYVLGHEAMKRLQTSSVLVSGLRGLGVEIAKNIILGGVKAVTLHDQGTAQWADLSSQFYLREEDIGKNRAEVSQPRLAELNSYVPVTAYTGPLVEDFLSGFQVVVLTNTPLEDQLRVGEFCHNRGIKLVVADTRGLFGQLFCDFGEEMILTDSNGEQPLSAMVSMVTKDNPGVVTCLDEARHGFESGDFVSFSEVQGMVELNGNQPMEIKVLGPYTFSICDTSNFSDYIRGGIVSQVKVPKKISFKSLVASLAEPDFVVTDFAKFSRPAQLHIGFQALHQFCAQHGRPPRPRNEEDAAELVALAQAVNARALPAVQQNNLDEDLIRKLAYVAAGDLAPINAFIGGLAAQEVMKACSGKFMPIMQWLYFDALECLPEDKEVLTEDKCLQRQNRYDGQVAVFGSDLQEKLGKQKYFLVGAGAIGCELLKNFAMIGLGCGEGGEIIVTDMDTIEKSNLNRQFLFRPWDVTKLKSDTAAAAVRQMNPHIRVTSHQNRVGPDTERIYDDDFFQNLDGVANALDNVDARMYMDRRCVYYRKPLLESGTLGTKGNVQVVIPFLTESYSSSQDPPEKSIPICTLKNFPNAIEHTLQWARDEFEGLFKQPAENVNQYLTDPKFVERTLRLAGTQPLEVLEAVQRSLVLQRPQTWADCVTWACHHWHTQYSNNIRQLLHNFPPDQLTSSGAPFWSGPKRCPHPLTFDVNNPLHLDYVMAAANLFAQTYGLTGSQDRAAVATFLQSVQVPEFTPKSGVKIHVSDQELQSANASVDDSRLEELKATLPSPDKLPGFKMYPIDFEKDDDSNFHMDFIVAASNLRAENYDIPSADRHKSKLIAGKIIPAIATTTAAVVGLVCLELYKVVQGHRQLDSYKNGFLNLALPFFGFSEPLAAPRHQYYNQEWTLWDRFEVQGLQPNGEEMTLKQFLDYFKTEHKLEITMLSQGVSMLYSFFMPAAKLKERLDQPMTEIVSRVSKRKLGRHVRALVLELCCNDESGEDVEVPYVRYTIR

Ubc13 = biological target: T5, Ubc13 (Homo sapiens, UniProt P61088); assay: MALDI-TOF intact mass shift (covalent adduct, +[…] Da); IC50 from E2 ubiquitin loading assay with purified UBE1 and E2
T5 construct: gene UBE2N; recombinant Ubc13
T5 sequence (P61088 1-152): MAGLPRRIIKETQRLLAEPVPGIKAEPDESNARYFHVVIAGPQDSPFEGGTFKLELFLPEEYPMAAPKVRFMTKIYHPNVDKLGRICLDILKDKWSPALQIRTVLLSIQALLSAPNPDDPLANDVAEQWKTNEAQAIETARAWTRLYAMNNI

## COC(=O)/C=C/C(=O)OC [Dimethyl fumarate]
Ube2R1
  E2 ubiquitin loading assay, panel of 24 E2s at two fixed DMF concentrations: UbcH7, Ube2W, Ube2T, Ube2S and Ube2R1 being most strongly inhibited
Ube2T
  E2 ubiquitin loading assay, panel of 24 E2s at two fixed DMF concentrations: UbcH7, Ube2W, Ube2T, Ube2S and Ube2R1 being most strongly inhibited
Ube2W
  E2 ubiquitin loading assay, panel of 24 E2s at two fixed DMF concentrations: UbcH7, Ube2W, Ube2T, Ube2S and Ube2R1 being most strongly inhibited
UbcH7
  IC50: < 10 µM
Ube2S
  E2 ubiquitin loading assay, panel of 24 E2s at two fixed DMF concentrations: UbcH7, Ube2W, Ube2T, Ube2S and Ube2R1 being most strongly inhibited
Ubc13
  IC50: 10 to 20 µM

From publication PMC4976367, “Dimethyl fumarate blocks pro-inflammatory cytokine production via inhibition of TLR induced M1 and K63 ubiquitin chain formation” (Scientific Reports, 2016)
